The values that follow are results of earlier work, collected in patent EP0301423B1 (CHIESI FARMACEUTICI S.p.A., priority 1987, dated 1989).

The test system of data set [1] is coronary flow. The settings on record: mice.
Data set [2] deals with isolated coronary artery. The settings on record: mice.

Turning to `CCNc1cc(C)nc2ncnn12` [TP1], the “effect on coronary flow” value in data set [1] is on record as “increase in the coronary flow”. In addition, in data set [2], the “effect on the isolated coronary artery” value is reported as “relaxation of the isolated coronary artery”.
